In ChEMBL document CHEMBL5346911, “From PROTAC to inhibitor: Structure-guided discovery of potent and orally bioavailable BET inhibitors” (Eur J Med Chem, 2023):
In brackets after ≈: the same amount, converted by molar mass.

Tests used:
in vitro [1] = conditions: human, plasma
cells = conditions: Homo sapiens, NALM16, 72 h
HD-MB03 = experiment: cells; conditions: Homo sapiens, HD-MB03, 72 h
[2] = human, microsomes
D283 Med = experiment: cells; conditions: Homo sapiens, 72 h
in vitro [3] = conditions: human, plasma; remark: listed apart in the source
[4] = molecular target: T1, Bromodomain-containing protein 2 (Homo sapiens, UniProt P25440); experiment: Inhibition of BRD2 BD2 (unknown origin) by TR-FRET assay
T1 sequence (P25440 whole entry): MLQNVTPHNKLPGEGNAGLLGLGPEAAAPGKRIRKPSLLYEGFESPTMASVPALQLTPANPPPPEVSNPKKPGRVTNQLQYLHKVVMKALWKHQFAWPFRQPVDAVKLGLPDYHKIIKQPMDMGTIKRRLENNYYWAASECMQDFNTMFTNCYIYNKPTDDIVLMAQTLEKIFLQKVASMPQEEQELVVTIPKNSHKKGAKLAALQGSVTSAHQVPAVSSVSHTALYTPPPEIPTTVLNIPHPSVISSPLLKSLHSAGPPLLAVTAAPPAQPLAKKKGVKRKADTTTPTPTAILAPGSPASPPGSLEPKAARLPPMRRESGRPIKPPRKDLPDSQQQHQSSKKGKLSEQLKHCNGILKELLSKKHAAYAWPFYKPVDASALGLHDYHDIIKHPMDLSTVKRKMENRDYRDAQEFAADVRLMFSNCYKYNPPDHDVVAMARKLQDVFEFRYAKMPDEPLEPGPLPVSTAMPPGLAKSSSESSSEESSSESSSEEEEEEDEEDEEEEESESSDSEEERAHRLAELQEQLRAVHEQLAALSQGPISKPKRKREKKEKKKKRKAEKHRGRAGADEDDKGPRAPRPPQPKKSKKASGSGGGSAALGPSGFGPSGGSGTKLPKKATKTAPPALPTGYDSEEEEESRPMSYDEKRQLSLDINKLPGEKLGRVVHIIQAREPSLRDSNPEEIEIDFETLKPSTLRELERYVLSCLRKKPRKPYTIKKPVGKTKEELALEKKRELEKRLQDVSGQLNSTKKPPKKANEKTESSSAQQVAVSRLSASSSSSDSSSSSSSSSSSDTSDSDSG

MV4-11 = experiment: cells; conditions: Homo sapiens, MV4-11, 72 h
MOLM-13 = experiment: cells; conditions: Homo sapiens, MOLM-13, 72 h
[5] = molecular target: T1, Bromodomain-containing protein 2; experiment: Inhibition of BRD2 BD1 (unknown origin) by TR-FRET assay
[6] = molecular target: T2, Bromodomain-containing protein 4 (Homo sapiens, UniProt O60885)
[7] = molecular target: T2, Bromodomain-containing protein 4; remark: listed apart in the source
[8] = buffer, pH 7.4, 18 h
[9] = Half life in CD1 mouse at 3 mg/kg, po measured upto 24 hrs by LC-MS/MS method; format: ADME, organism-based; conditions: in vivo
[10] = Unbound clearance in CD1 mouse at 10 mg/kg, po measured upto 24 hrs by LC-MS/MS method; format: ADME, organism-based; conditions: in vivo
[11] = Half life in CD1 mouse at 1 mg/kg, iv measured upto 24 hrs by LC-MS/MS method; format: ADME, organism-based; conditions: in vivo
[12] = Downregulation of MYC level in human MV4-11 cells at 100 nM measured after 6 hrs by immunoblotting analysis relative to control; format: functional
in vitro [13] = conditions: human, Caco-2
[14] = AUClast in CD1 mouse at 10 mg/kg, po measured upto 24 hrs by LC-MS/MS method; format: ADME, organism-based; parameters: dose 10 mg/kg, time < 24 hrs, route po; conditions: in vivo
[15] = AUClast in CD1 mouse at 1 mg/kg, iv measured upto 24 hrs by LC-MS/MS method; format: ADME, organism-based; parameters: time < 24 hrs, dose 1 mg/kg, route iv; conditions: in vivo
[16] = Unbound clearance in CD1 mouse at 1 mg/kg, iv measured upto 24 hrs by LC-MS/MS method; format: ADME, organism-based; conditions: in vivo
[17] = Apparent volume of distribution during terminal phase in CD1 mouse at 1 mg/kg, iv measured upto 24 hrs by LC-MS/MS method; format: ADME, organism-based; conditions: in vivo
[18] = Oral bioavailability in CD1 mouse at 10 mg/kg measured upto 24 hrs by LC-MS/MS method; format: ADME, organism-based; conditions: in vivo
[19] = Oral bioavailability in CD1 mouse at 3 mg/kg measured upto 24 hrs by LC-MS/MS method; format: ADME, organism-based; conditions: in vivo
[20] = AUClast in CD1 mouse at 3 mg/kg, po measured upto 24 hrs by LC-MS/MS method; format: ADME, organism-based; parameters: dose 3 mg/kg, time < 24 hrs, route po; conditions: in vivo
[21] = Half life in CD1 mouse at 10 mg/kg, po measured upto 24 hrs by LC-MS/MS method; format: ADME, organism-based; conditions: in vivo
[22] = Tmax in CD1 mouse at 10 mg/kg, po measured upto 24 hrs by LC-MS/MS method; format: ADME, organism-based; conditions: in vivo
[23] = Cmax in CD1 mouse at 1 mg/kg, iv measured upto 24 hrs by LC-MS/MS method; format: ADME, organism-based; parameters: time < 24 hrs, dose 1 mg/kg, route iv; conditions: in vivo
[24] = Downregulation of MYC level in human MV4-11 cells at 1 uM measured after 6 hrs by immunoblotting analysis relative to control; format: functional
[25] = Cmax in CD1 mouse at 10 mg/kg, po measured upto 24 hrs by LC-MS/MS method; format: ADME, organism-based; parameters: time < 24 hrs, dose 10 mg/kg, route po; conditions: in vivo
[26] = Cmax in CD1 mouse at 3 mg/kg, po measured upto 24 hrs by LC-MS/MS method; format: ADME, organism-based; parameters: time < 24 hrs, dose 3 mg/kg, route po; conditions: in vivo
[27] = Unbound clearance in CD1 mouse at 3 mg/kg, po measured upto 24 hrs by LC-MS/MS method; format: ADME, organism-based; conditions: in vivo
[28] = Tmax in CD1 mouse at 3 mg/kg, po measured upto 24 hrs by LC-MS/MS method; format: ADME, organism-based; conditions: in vivo

In the case of `Cc1sc2c(c1C)C(c1ccc(Cl)cc1)=N[C@@H](CC(=O)OC(C)(C)C)c1nnc(C)n1-2`, the half-life at 48 h (in vitro [1]) is reported as greater than 100 h, the IC50 (cells) is reported as 18 nM and the IC50 (HD-MB03) is reported as 90 nM. For the same compound, the t1/2 [2] was 0.4 h, the IC50 (D283 Med) was 60 nM and the fraction unbound (in vitro [3]) was 0.008.

`Cc1sc2c(c1C)C(c1ccc(Cl)cc1)=N[C@@H](CC(=O)NCCc1c[nH]c3ccccc13)c1nnc(C)n1-2` showed an IC50 [4] of 50 nM, an IC50 (MV4-11) of 182 nM and an IC50 (cells) of 172 nM. The IC50 (MOLM-13) was 318 nM, the IC50 (HD-MB03) was 254 nM and the IC50 [5] was 252 nM.

`COC(=O)[C@H](Cc1c[nH]cn1)NC(=O)C[C@@H]1N=C(c2ccc(Cl)cc2)c2c(sc(C)c2C)-n2c(C)nnc21` gave an IC50 [6] of 6 nM, an IC50 [4] of 9 nM and an IC50 (MV4-11) of 1140 nM. The IC50 (cells) was 791 nM, the IC50 (MOLM-13) was 200 nM and the IC50 [7] was 34 nM. For the same compound, the IC50 [5] was 32 nM and the IC50 (D283 Med) was 2930 nM.

With `Cc1sc2c(c1C)C(c1ccc(Cl)cc1)=N[C@@H](CC(=O)NCCO)c1nnc(C)n1-2` the IC50 (cells) was 7 nM, the IC50 (MOLM-13) was 8 nM and the IC50 (HD-MB03) was 42 nM. It also gave an IC50 (D283 Med) of 413 nM.

Compound `Cc1sc2c(c1C)C(c1ccc(Cl)cc1)=N[C@@H](CC(=O)NCc1ccccc1)c1nnc(C)n1-2` has an IC50 [6] of 0.3 nM, an IC50 [4] of 0.2 nM and a half-life at 48 h (in vitro [1]) greater than 100 h. It also gave an IC50 (cells) of 452 nM, an IC50 (MOLM-13) of 385 nM and an IC50 (HD-MB03) of 619 nM. For the same compound, the IC50 [5] was 21 nM.

With `Cc1sc2c(c1C)C(c1ccc(Cl)cc1)=N[C@@H](CC(=O)NCc1cn(C)cn1)c1nnc(C)n1-2` the IC50 [6] was 0.6 nM, the IC50 [4] was 3 nM and the half-life at 48 h (in vitro [1]) was greater than 100 h. For the same compound, the IC50 (MV4-11) was 143 nM, the IC50 (cells) was 93 nM and the IC50 (MOLM-13) was 52 nM. For the same compound, the IC50 (HD-MB03) was 358 nM, the IC50 [7] was 82 nM and the IC50 [5] was 17 nM. The IC50 (D283 Med) was 789 nM.

`Cc1sc2c(c1C)C(c1ccc(Cl)cc1)=N[C@@H](CC(=O)NCc1cn(C)nn1)c1nnc(C)n1-2` gave an IC50 [6] of 26 nM, a half-life at 48 h (in vitro [1]) greater than 100 h and an IC50 (MV4-11) of 59 nM. It also gave an IC50 (cells) of 14 nM, an IC50 (MOLM-13) of 11 nM and an IC50 (HD-MB03) of 40 nM. The IC50 [7] was 1410 nM and the IC50 [5] was 639 nM.

In the case of `Cc1sc2c(c1C)C(c1ccc(Cl)cc1)=N[C@@H](CC(=O)NCc1c[nH]nn1)c1nnc(C)n1-2`, the IC50 [6] is reported as 1 nM, the half-life at 48 h (in vitro [1]) is reported as greater than 100 h and the IC50 (MV4-11) is reported as 253 nM. For the same compound, the IC50 (cells) was 7 nM, the IC50 (MOLM-13) was 3 nM and the IC50 (HD-MB03) was 3 nM. For the same compound, the IC50 [7] was 79 nM, the IC50 [5] was 8 nM and the IC50 (D283 Med) was 964 nM.

In the case of `Cc1sc2c(c1C)C(c1ccc(Cl)cc1)=N[C@@H](CC(=O)NCC(=O)O)c1nnc(C)n1-2`, the IC50 [6] is reported as 0.4 nM, the IC50 [4] is reported as 0.3 nM and the half-life at 48 h (in vitro [1]) is reported as greater than 100 h. The IC50 (MV4-11) was 3060 nM, the IC50 (cells) was greater than 8850 nM and the IC50 (HD-MB03) was 9340 nM. For the same compound, the IC50 [5] was 146 nM and the IC50 (D283 Med) was greater than 8850 nM.

For `COC(=O)CNC(=O)C[C@@H]1N=C(c2ccc(Cl)cc2)c2c(sc(C)c2C)-n2c(C)nnc21`, the IC50 (cells) was 16 nM, the IC50 (MOLM-13) was 9 nM and the IC50 (HD-MB03) was 359 nM. It also gave an IC50 (D283 Med) of 337 nM.

With `Cc1sc2c(c1C)C(c1ccc(Cl)cc1)=N[C@@H](CC(=O)Nc1nncs1)c1nnc(C)n1-2` the solubility [8] was 12 µM (≈ 5.81 µg/mL), the IC50 [6] was 0.2 nM and the t1/2 [9] was 3.9 h. It also gave an IC50 [4] of 0.1 nM, a CL free [10] of 17.5 mL/min/kg and a t1/2 [11] of 1.5 h. For the same compound, the half-life at 48 h (in vitro [1]) was greater than 100 h, the Activity [12] was 50% and the Papp A→B (in vitro [13]) was 6.65 ×10⁻⁶ cm/s. It also gave an IC50 (MV4-11) of 20 nM, an AUClast [14] of 9473 ng·h/mL and an AUClast [15] of 1567.1 ng·h/mL. It also gave an IC50 (cells) of 3 nM, a CL free [16] of 10.6 mL/min/kg and an IC50 (MOLM-13) of 10 nM. It also gave a Vz/F [17] of 0.8 L/kg, an IC50 (HD-MB03) of 6 nM and an F [18] of 60%. It also gave an F [19] of 70%, an AUClast [20] of 3275.4 ng·h/mL and a t1/2 [21] of 3.9 h. The t1/2 [2] was 3.2 h, the IC50 [7] was 6 nM and the Tmax [22] was 0.5 h. The Cmax [23] was 1930 ng/mL, the Activity [24] was 22% and the Cmax [25] was 3155.6 ng/mL. It also gave a Cmax [26] of 1555.3 ng/mL, a CL free [27] of 15.2 mL/min/kg and an IC50 (D283 Med) of 56 nM. It also gave a Tmax [28] of 1 h.

`Cc1sc2c(c1C)C(c1ccc(Cl)cc1)=N[C@@H](CC(=O)NCc1ccccn1)c1nnc(C)n1-2` showed an IC50 [4] of 0.3 nM, an IC50 (MV4-11) of 444 nM and an IC50 (cells) of 14 nM. The IC50 (MOLM-13) was 8 nM, the IC50 (HD-MB03) was 263 nM and the IC50 [5] was 16 nM. It also gave an IC50 (D283 Med) of 228 nM.

With `Cc1sc2c(c1C)C(c1ccc(Cl)cc1)=N[C@@H](CC(=O)Nc1nccs1)c1nnc(C)n1-2` the half-life at 48 h (in vitro [1]) was greater than 100 h, the IC50 (MV4-11) was 40 nM and the IC50 (cells) was 6 nM. It also gave an IC50 (MOLM-13) of 22 nM, an IC50 (HD-MB03) of 4 nM and an IC50 [5] of 10 nM.

`Cc1sc2c(c1C)C(c1ccc(Cl)cc1)=N[C@@H](CC(=O)NCc1ccon1)c1nnc(C)n1-2` showed a solubility [8] of 56.9 µM (≈ 27.4 µg/mL), an IC50 [4] of 0.1 nM and a half-life at 48 h (in vitro [1]) greater than 100 h. The Papp A→B (in vitro [13]) was 15 ×10⁻⁶ cm/s, the IC50 (MV4-11) was 32 nM and the IC50 (cells) was 12 nM. For the same compound, the IC50 (MOLM-13) was 14 nM, the IC50 (HD-MB03) was 17 nM and the t1/2 [2] was 0.4 h. For the same compound, the IC50 [5] was 3 nM, the IC50 (D283 Med) was 25 nM and the fraction unbound (in vitro [3]) was 0.065.

Compound `Cc1sc2c(c1C)C(c1ccc(Cl)cc1)=N[C@@H](CC(=O)NCc1ncco1)c1nnc(C)n1-2` has an IC50 [4] of 0.1 nM, an IC50 (MOLM-13) of 2 nM and an IC50 (HD-MB03) of 1 nM. The IC50 [5] was 9 nM and the IC50 (D283 Med) was 18 nM.

Compound `Cc1sc2c(c1C)C(c1ccc(Cl)cc1)=N[C@@H](CC(=O)Nc1ccc(O)cc1)c1nnc(C)n1-2` [BIRABRESIB] has a solubility [8] of 23.4 µM (≈ 11.5 µg/mL), a half-life at 48 h (in vitro [1]) greater than 100 h and a Papp A→B (in vitro [13]) of 22.2 ×10⁻⁶ cm/s. The IC50 (MV4-11) was 22 nM, the IC50 (cells) was 14 nM and the IC50 (MOLM-13) was 11 nM. The t1/2 [2] was 1.7 h, the IC50 (D283 Med) was 66 nM and the fraction unbound (in vitro [3]) was 0.027.
